PubChem BioAssay (NCI)
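These data come from cells grown in 96-well plates and exposed to compound for 48 hours at five concentrations. TGI is the concentration that stops growth completely.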

Experiments:
Assay in all cases: DTP human tumour cell line panel, 48 h
UACC-62 melanoma = tested on: UACC-62 melanoma
UACC-257 melanoma = tested on: UACC-257 melanoma
SF-539 CNS = tested on: SF-539 CNS
NCI-H460 lung = tested on: NCI-H460 lung
OVCAR-8 ovarian = tested on: OVCAR-8 ovarian
COLO 205 colon = tested on: COLO 205 colon
NCI-H23 lung = tested on: NCI-H23 lung
CCRF-CEM leukemia = tested on: CCRF-CEM leukemia
ACHN renal = tested on: ACHN renal
OVCAR-4 ovarian = tested on: OVCAR-4 ovarian

| Compound | TGI (UACC-62 melanoma) [µM] | TGI (UACC-257 melanoma) [µM] | TGI (SF-539 CNS) [µM] | TGI (NCI-H460 lung) [µM] | TGI (OVCAR-8 ovarian) [µM] | TGI (COLO 205 colon) [µM] | TGI (NCI-H23 lung) [µM] | TGI (CCRF-CEM leukemia) [µM] | TGI (ACHN renal) [µM] | TGI (OVCAR-4 ovarian) [µM] |
| --- | --- | --- | --- | --- | --- | --- | --- | --- | --- | --- |
| O=c1[nH]nc(Cc2ccc([N+](=O)[O-])cc2)[nH]1 | > 100 | > 100 | > 100 | > 100 | > 100 | > 100 | > 100 | > 100 | > 100 | > 100 |
| CC(C)(CN1CCCCC1)C(=O)CC(SCCS(=O)(=O)O)c1ccc(Cl)c(Cl)c1 (stereo not given) | 10.1 | 20.8 | 6.23 | 11.9 | 8.45 | 7.25 | 15.8 | 4.69 | 9.03 | 9.38 |
| CC(CN(C)C)C(O)(c1ccccc1)c1ccccc1 (stereo not given) | > 100 | > 100 | > 100 | > 100 | > 100 | > 100 | > 100 | > 100 | > 100 | > 100 |
| Cc1nc(-c2ccc(Cl)cc2)cn2c1nc1ccccc12 | > 100 | > 100 | > 100 | > 100 | > 100 | > 100 | > 100 | > 31.6 | > 100 | > 100 |
| CCOc1cc(C=Nc2ccc(Oc3ccc(Cl)cc3)c(Cl)c2)ccc1O | 50.9 | 80.8 | 54.7 | 43.2 | 65.4 | 44.6 | 45.6 | 50.8 | > 100 | 80.4 |
| C=CC(=O)N1C/C(=C\c2ccc(F)cc2)C(=O)/C(=C/c2ccc(F)cc2)C1 | 0.223 | 6.05 | 0.653 | 2.04 | 2.59 | 1.81 | 3.32 | > 100 | 0.715 | 1.85 |
| NC(Cc1ccccc1)C(=O)O (stereo not given) | > 100 | > 100 | > 100 | > 100 | > 100 | > 100 | > 100 | > 100 | > 100 | > 100 |
| COc1cc2c(cc1OCc1ccccc1)NC(=O)[C@@H]1C[C@@H](O)CN1C2=O | > 100 | > 100 | > 100 | > 100 | > 100 | > 100 | > 100 | > 100 | > 100 | > 100 |
| CCSc1nn(-c2c3ccccc3nc3ccccc23)c(=S)s1 | > 100 | > 100 | > 100 | > 100 | > 100 | > 100 | > 100 | > 100 | > 100 | > 100 |
| Clc1cccc(Cl)c1C1ON=C(c2ccccc2)N1C12CC3CC(CC(C3)C1)C2 (stereo not given) | > 100 | 15.1 | > 100 | > 100 | > 100 | 30.5 | > 100 | 56.5 | > 100 | > 100 |
| Oc1cc(Br)cc2cc(Br)cnc12 | 5.88 | > 100 | > 100 | 22.1 | > 100 | > 100 | 46.1 | 6.27 | 47.4 | 9.59 |
| O=C(c1ccccc1)c1ccc2c(c1)N=C(c1ccc(Cl)c(Cl)c1)CC(c1ccc3ccccc3c1)N2 (stereo not given) | > 100 | > 100 | > 100 | > 100 | > 100 | > 100 | > 100 | > 100 | > 100 | > 100 |
| C#Cc1ccccc1C(=O)OC | > 100 | > 100 | > 100 | > 100 | > 100 | > 100 | > 100 | > 100 | > 100 | > 100 |
| C[N+](C)(C)c1nc(N)nc2c1ncn2C1OC(CO)C(O)C1O (stereo not given) | > 100 | > 100 | > 100 | > 100 | > 100 | > 100 | > 100 | > 100 | > 100 | > 100 |
| Cc1ccc2c3ccc4c(c3n(C)c2c1)C(=O)C=CC4=O | > 10 | > 10 | > 9.21 | > 10 | > 10 | 5.51 | > 10 | 0.844 | > 10 | > 7.77 |
| COC(=O)[C@]12CCC(=O)N1[C@H](C(=O)O)Cc1c2[nH]c2ccccc12 | > 100 | > 100 | > 100 | > 100 | > 100 | > 100 | > 100 | > 100 | > 100 | > 100 |
| O=[N+]([O-])c1ccc(-c2nc3ccccc3o2)cc1 | > 100 | > 100 | > 100 | > 100 | > 100 | > 100 | > 100 | > 100 | > 100 | > 100 |
| Cc1nc2ccccc2n1CCc1nc2ccccc2[nH]1 | > 100 | > 100 | > 100 | > 100 | > 100 | > 100 | > 100 | > 100 | > 100 | > 100 |
